One data set deals with L-Type Calcium Channels. Description: L-type calcium channels: inhibition of binding of [3H]nitrendipine to rat cerebral cortex membranes. The conditions noted are these: for L-type Ca2+ % inhibition @ 10 μM: [3H]nitrendipine binding; for IC50: read-out: L-type Ca2+ IC50 (μM) (extrapolated from 10 μM inh'n), extrapolated assuming binding slope 1.0.
Data set [1] concerns the target T1, DiHydroFolate Reductase (DHFR) (Rattus norvegicus, UniProt Q920D2).
T1 construct: from tissue; host or cells: rat liver homogenate supernatant
T1 sequence (Q920D2 1-187): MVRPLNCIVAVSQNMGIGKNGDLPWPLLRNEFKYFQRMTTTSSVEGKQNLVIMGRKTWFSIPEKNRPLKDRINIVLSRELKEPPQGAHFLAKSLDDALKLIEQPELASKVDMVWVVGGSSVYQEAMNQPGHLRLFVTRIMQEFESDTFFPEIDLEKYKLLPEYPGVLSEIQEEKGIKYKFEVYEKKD
Description: Inhibition of binding of [3H]methotrexate to rat liver homogenate supernatant. The conditions noted are these: for inhibition at 125 µM: read-out: [3H]mtx binding (% inhibition @ 125 μM). The procedure, abridged: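 Displacement of [3H]methotrexate binding to rat liver homogenate supernatant, prepared at 4 °C in pH 6.0 phosphate buffer with 15 mM dithiothreitol. Values are mean±sem over the number of experiments shown.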

The subject of the next data set is sodium channel. Description: [14C]guanidine flux: veratrine-evoked uptake of [14C]guanidine into rat forebrain synaptosomes (primary sodium channel assay). The conditions noted are these: 30° for 2½ min. It is filed as biochemical. The method, boiled down:
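Synaptosomal fraction from male Wistar rat forebrain (without cerebellum/medulla), 20-25 mg wet weight/ml. Veratrine-evoked [14C]guanidine uptake at 30° for 2½ min across a compound concentration range; IC50 from concentration-effect curves, mean±sem.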

Another data set can be described thus: Rat microsome stability. The conditions noted are these: 1 μM, rat liver microsomes. It is filed as in vitro ADME. On the procedure: Compounds were sent to BioFocus for measurement of their stability@1 μM concentration following incubation with rat liver microsomes for 40 minutes@37°.
Data set [2] has as its target T2, hERG (Homo sapiens, UniProt Q12809). As to the kind of experiment: hERG: inhibition of binding of [3H]astemizole to HEK-293 cells expressing human recombinant hERG. The conditions noted are these: for inhibition at 10 µM: human, probe [3H]astemizole. Background: hERG is a cardiac potassium channel; its block is linked to QT prolongation.
The test system of data set [3] is 0.4 mm slices of rat hippocampus. As to the kind of experiment: tissue or blood. It is filed as cell-based. The conditions noted are these: Rattus norvegicus; 30 μM; iodoacetate 400 μM insult; slice ATP; read-out: % protection (v 1 μM TTX) (mean ± sem) (no. of expt's).
The test system of another data set is Sodium Channel, Site 2. It is filed as binding, Wistar Rat. The conditions noted are these: read-out: [3H]BTX-B binding Extrapolated IC50.
The target in data set [4] is T2, hERG. Description: in vitro.
Data set [5] deals with T2, hERG.

Where two headings read alike, the source gives them in different places.

The source of these data is US8691818B2, “Cyclic triazo and diazo sodium channel blockers” (University Of Greenwich, priority 2008, dated 2014).

T2 sequence (Q12809 whole entry): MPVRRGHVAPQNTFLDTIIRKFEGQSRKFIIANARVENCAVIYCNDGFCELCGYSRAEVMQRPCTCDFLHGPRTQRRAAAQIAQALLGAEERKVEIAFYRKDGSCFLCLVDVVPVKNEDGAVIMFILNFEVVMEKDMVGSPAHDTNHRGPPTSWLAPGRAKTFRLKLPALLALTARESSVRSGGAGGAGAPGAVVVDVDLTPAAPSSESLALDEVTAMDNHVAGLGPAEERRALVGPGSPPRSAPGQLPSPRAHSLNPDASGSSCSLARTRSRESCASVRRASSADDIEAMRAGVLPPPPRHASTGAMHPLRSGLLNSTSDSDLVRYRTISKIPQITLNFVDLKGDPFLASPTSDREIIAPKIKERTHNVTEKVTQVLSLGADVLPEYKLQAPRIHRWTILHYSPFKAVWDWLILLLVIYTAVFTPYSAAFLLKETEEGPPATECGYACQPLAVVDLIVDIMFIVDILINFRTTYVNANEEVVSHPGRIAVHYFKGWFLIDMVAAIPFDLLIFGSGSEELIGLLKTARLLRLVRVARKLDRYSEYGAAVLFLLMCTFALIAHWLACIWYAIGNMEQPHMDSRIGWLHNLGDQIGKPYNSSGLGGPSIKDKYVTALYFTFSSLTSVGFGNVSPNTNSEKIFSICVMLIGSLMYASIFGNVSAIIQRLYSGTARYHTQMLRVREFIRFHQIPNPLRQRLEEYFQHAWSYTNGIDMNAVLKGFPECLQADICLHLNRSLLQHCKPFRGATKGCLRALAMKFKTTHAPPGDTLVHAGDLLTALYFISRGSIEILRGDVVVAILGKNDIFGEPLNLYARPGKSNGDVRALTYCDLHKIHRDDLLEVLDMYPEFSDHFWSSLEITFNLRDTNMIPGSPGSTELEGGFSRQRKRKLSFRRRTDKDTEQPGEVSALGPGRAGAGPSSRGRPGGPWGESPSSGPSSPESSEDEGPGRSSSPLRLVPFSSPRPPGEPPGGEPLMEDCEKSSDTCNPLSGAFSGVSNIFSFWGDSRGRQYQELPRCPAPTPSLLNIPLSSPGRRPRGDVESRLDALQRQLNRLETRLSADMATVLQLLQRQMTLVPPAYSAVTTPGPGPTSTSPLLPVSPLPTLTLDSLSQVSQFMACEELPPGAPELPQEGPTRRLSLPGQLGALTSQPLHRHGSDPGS

With `Nc1nnc(-c2sc(Cl)c(Cl)c2Cl)c(N)n1` [CEN-79, 3,5-Diamino-6-[2-(3,4,5 trichlorothienyl)]-1,2,4-triazine], the melting point (commonly the temperature of the solid-liquid transition) was in the range of 263 to 265 °C. In the data set with L-Type Calcium Channels, the “L-type Ca2+ % inhibition @ 10 μM” value worked out at 17% and the IC50 (usually the concentration at which inhibition is half-maximal) was 48.8 µM. For the same molecule, in data set [1] (125 μM), the inhibition (usually the drop in the measured response relative to a control, in per cent) at 125 µM was -1%. In addition, in the data set on sodium channel, the half-inhibitory concentration (IC50) was 209 µM. Besides, the “Microsome stability % metabolized (40 min incubation 37°)” value (from here on “Microsome stability % metabolized”) in the data set “Rat microsome stability” is reported as 0.0%. Also, on hERG [2], the IC50 is greater than 200 µM and the inhibition at 10 µM was found to be 3%.
As to `N=c1nc(N)c(-c2ccccc2Oc2ccccc2)nn1CC(F)(F)F` [CEN-98, 5(3)-Amino-6-(2-phenoxyphenyl)-2,3(2,5)-dihydro-3(5)-imino-2-(1,1,1-trifluoroethyl)-1,2,4-triazine], the “L-type Ca2+ % inhibition @ 10 μM” value in the data set on L-Type Calcium Channels is −18%. Moreover, the IC50 on L-Type Calcium Channels is greater than 190 µM; with sodium channel, 8.9 µM; on hERG [2] it was 46 µM. Further, the inhibition at 125 µM in [1] (125 μM) is 41%. Besides, the “Microsome stability % metabolized” value in the data set “Rat microsome stability” is reported as 6.0%. The inhibition at 10 µM on hERG [2] is 18%. Further, in data set [3], the Emax at 30 µM is 11%.
`CCOc1ccc2ccccc2c1-c1nnc(N)nc1N` [CEN-110] had a melting point of 178 to 180 °C. For the same molecule, in data set [1] (125 μM), the inhibition at 125 µM was -23%. Besides, the IC50 in the data set on sodium channel is 135 µM. Further, the “Microsome stability % metabolized” value in the data set “Rat microsome stability” is reported as 61.5%. Further, at hERG [2], the IC50 is greater than 200 µM and the inhibition at 10 µM is -12%.
As for `Nc1nnc(-c2cccc(Cl)c2Cl)c(N)n1` [CEN-1, Lamotrigine, reference compound], the concentration for half-maximal inhibition (IC50) in the data set on Sodium Channel, Site 2 is greater than 200 µM; with sodium channel, 219 µM. In the data set “Rat microsome stability”, the “Microsome stability % metabolized” value was found to be 0.5%. In addition, in data set [3], the Emax at 30 µM is 41%.
Consider `Nc1nnc(-c2ccc3ccccc3c2)c(N)n1` [CEN-73, 3,5-Diamino-6-(2-naphthyl)-1,2,4-triazine], for which the melting point was in the range of 215 to 216 °C. Besides, in the data set on L-Type Calcium Channels, the “L-type Ca2+ % inhibition @ 10 μM” value came to 8% and the IC50 is 115 µM. Further, the inhibition at 125 µM in data set [1] (125 μM) was 5%. Moreover, in the data set on sodium channel, 81.2 µM corresponded to half-maximal inhibition (IC50). Besides, in the data set “Rat microsome stability”, the “Microsome stability % metabolized” value stood at 62.5%. On hERG [2], the IC50 is greater than 200 µM and the inhibition at 10 µM stood at 3%.
For the molecule `Cn1nc(-c2cc(C(F)(F)F)cc(C(F)(F)F)c2)c(N)nc1=N` [CEN-99, 5(3)-Amino-6-[3,5-(bis-trifluoromethyl)phenyl]-2,3(2,5)-dihydro-3(5)-imino-2-methyl-1,2,4-triazine methanesulfonate], the inhibition at 125 µM in data set [1] (125 μM) is -1%. For the same molecule, the midpoint of inhibition in the data set on sodium channel, the IC50, lay at 135 µM. Also, the “Microsome stability % metabolized” value in the data set “Rat microsome stability” amounted to 0.0%. For the same molecule, at hERG [2], the IC50 turned out to be 34 µM and the inhibition at 10 µM was determined as 23%.
On to `Nc1nnc2c(n1)-c1cccc3cccc-2c13` [CEN-155], for which, on hERG [4], the inhibition at 10 µM worked out at 22%. Moreover, the inhibition at 125 µM in data set [1] is -6%. In addition, the half-inhibitory concentration (IC50) in the data set with sodium channel stood at 34 µM; on hERG [2] it was 35 µM.
Turning to `N=c1nc(N)c(-c2cccc(Cl)c2Cl)nn1CC(F)(F)F` [CEN-67, 5(3)-Amino-6-(2,3-dichlorophenyl)-2,3(2,5)-dihydro-3(5)-imino-2-(2,2,2-trifluoroethyl)-1,2,4-triazine], in the data set with L-Type Calcium Channels, the “L-type Ca2+ % inhibition @ 10 μM” value is listed as −16% and the 50% inhibitory concentration (IC50) was greater than 190 µM. Further, the inhibition at 125 µM in [1] (125 μM) is 11%. Also, in the data set on sodium channel, half-maximal inhibition (IC50) was put at 4.3 µM. For the same molecule, the “Microsome stability % metabolized” value in the data set “Rat microsome stability” is given as 0.5%. Moreover, at hERG [2], the IC50 turned out to be 57 µM and the inhibition at 10 µM turned out to be 15%. The Emax at 30 µM in data set [3] was 3%.
For the molecule “6-Adamantyl-3,5-diamino-1,2,4-triazine [CEN-83]”, the half-inhibitory concentration (IC50) at hERG [5] amounted to 52 µM; with sodium channel, 40.8 µM. Besides, the “[3H]mtx binding (% inhibition @ 125 μM)” value in data set [1] (125 μM) is reported as −5%.
Take `Nc1nnc(-c2cc(C(F)(F)F)cc(C(F)(F)F)c2)c(N)n1` [CEN-92, 3,5-Diamino-6-(3,5-bistrifluoromethylphenyl)-1,2,4-triazine]: in the data set with L-Type Calcium Channels, the “L-type Ca2+ % inhibition @ 10 μM” value worked out at 3% and the IC50 was greater than 190 µM. Moreover, the “[3H]mtx binding (% inhibition @ 125 μM)” value in data set [1] (125 μM, listed as 92, 125 µM) is recorded as 15%. Further, the half-inhibitory concentration (IC50) in the data set on sodium channel (listed as 92) was 144 µM. Further, the “Microsome stability % metabolized” value in “Rat microsome stability” was 0.0%. On hERG [2], the IC50 is greater than 200 µM and the inhibition at 10 µM was 4%. Also, the Emax at 30 µM in data set [3] stood at 32%.
`Nc1nnc(-c2cccc(Oc3ccccc3)c2)c(N)n1` [CEN-84, 3,5-Diamino-6-(3-phenoxphenyl)-1,2,4-triazine] gave a melting point of 152 to 153 °C. In the data set on L-Type Calcium Channels, the “L-type Ca2+ % inhibition @ 10 μM” value stood at 7% and the IC50 was 133 µM. Moreover, the inhibition at 125 µM in [1] (125 μM) was -4%. For the same molecule, in the data set with sodium channel, the IC50 was determined as 43.7 µM. Moreover, the “Microsome stability % metabolized” value in “Rat microsome stability” stood at 33.0%. At hERG [2], the IC50 came out at 101 µM and the inhibition at 10 µM came to 9%.
